# Assays:
# [1] = system: phosphorylation of Ser15 of p53 (ATM and ATR); test: p53 Ser15 phosphorylation in RKO cells treated with synoviolin siRNA, with or without caffeine (Western blotting); assay type: cell-based, human; details: caffeine 10 mM, both 12 h and 24 h after the addition, FIG. 5
# Procedure: RKO cells (human colon cancer cells), which had been confirmed to express wild-type p53, were seeded on a 60 mm plate at 1.0×10^5 cells/plate/2 mL), and were transfected with siRNA oligonucleotides against GFP and synoviolin, using Oligofectamine. After 72 h, caffeine (10 mM), an inhibitor of ATM (ataxia-telangiectasia mutated) and ATR (an ATM and Rad3-related), which are important in the phosphorylation of […], was added. Then, Western blotting was performed using Phospho-p53 ([…]), an antibody to the phosphorylated […]-p53.
# p53 protein = p53 protein expression level in RKO cells (Western blotting); assay type: cell-based, human; details: 5, 10 or 20 μM, 24 h, FIG. 19
# Procedure: Fractions of homogenized cells were prepared from various cells using a cell homogenizing solution (50 mM Tris-HCl [pH 8.0], 150 mM NaCl, 1% NP40, 1 mM PMSF, 0.1% sodium dodecyl sulfate (SDS), 2 μg/mL leupeptin, 2 μg/mL aprotinin, and 2 μg/mL pepstatin). Then, fractions of homogenized cells were separated by SDS-PAGE. After SDS-PAGE, the cell-derived proteins were transferred onto a nitrocellulose (NC) membrane by an electroblotting method. This NC membrane was blocked with Tris buffered saline (TBS) with 5% skim milk at room temperature for 1 h, and then immunoreacted with anti-p53 antibody C-terminal aa; 195-393 or FL393, both of which were diluted in TBS with 5% skim milk, at room temperature for 1 h. The NC membrane after reaction was washed with 0.1% Tween 20/TBS, and then immunoreacted with horse radish peroxidase (HRP)-labeled anti-rabbit IgG antibody as secondary antibody, at room temperature for 1 h. The membrane was washed with 0.1% Tween 20/TBS, and HRP activity was sought to detect the target antigen. An ECL kit (Amersham) was used to detect HRP activity […]).
# RKO cells were treated with compound Y, and changes in p53 protein expression level were examined by Western blotting. Specifically, RKO cells were seeded in 10 cm plates at 5.0×10^5 cells/plate, and cultured for 24 h. […]
# RKO cells = test: cytotoxicity / cell survival rate in RKO cells (WST-8); assay type: cell-based, human; details: cultured 24-72 h with compound, FIG. 18
# Procedure: RKO cells (a human colon carcinoma cell line; ATCC: CRL-2577) were seeded in Eagle's Minimum Essential Medium containing 10% fetal bovine serum in a 96-well microtiter plate (Falcon; non-coated) at 1,000 cells/100 μL/well, and cultured for 24 h. Compounds X and Y were dissolved in Eagle's Minimum Essential Medium containing 10% fetal bovine serum, and 10 μL amounts were added to wells. The cells were then cultured for 24-72 h.
# After culture, WST-8 (2-(2-methoxy-4-nitrophenyl)-3-(4-nitrophenyl)-5-(2,4-disulfophenyl)-2H-tetrazolium, monosodium salt) was added to each well. After 2-4 h, absorbances at 450 nm were measured (reference wavelength: […]) and cell survival rates were calculated (FIG. 18).
# The calculation method was based on the following formula: […]
# [2] = system: T1, synoviolin (MBP-Syno ΔTM-His), substrate GST-p53 (Homo sapiens); test: in vitro ubiquitination reaction of GST-p53 by MBP-Syno ΔTM-His (Western blot, anti-p53 FL393); assay type: biochemical; details: 75, 150, 300 or 600 μM compound; FIG. 17B
# T1 construct: GST-SynoΔTM 236-617:pGEX-5-1/S ΔTM; His tag (C); made in house; host or cells: E. coli
# T1 sequence (Q86TM6 236-617 E545G): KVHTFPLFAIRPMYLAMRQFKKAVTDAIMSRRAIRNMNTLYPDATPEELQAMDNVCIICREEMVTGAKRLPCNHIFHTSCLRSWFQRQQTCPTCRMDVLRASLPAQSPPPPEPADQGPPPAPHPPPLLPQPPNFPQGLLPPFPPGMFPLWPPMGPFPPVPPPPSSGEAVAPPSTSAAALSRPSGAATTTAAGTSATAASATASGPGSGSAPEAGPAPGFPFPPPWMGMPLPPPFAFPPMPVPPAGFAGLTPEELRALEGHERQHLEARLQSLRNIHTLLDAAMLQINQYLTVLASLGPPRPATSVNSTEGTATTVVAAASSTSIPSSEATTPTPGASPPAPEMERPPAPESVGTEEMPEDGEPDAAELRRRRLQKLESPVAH
# Procedure: E. coli (BL21) hosting pGEX/p53 was cultured in 500 mL of LB medium. After induction with IPTG (1 mM at 30° C. for 6 h), an extract was prepared from the culture solution, using buffer containing 0.5% NP-40. From the E. coli extract, GST-p53 was purified using a GSH-Sepharose resin in the presence of 0.1% NP-40. […] After the reaction, proteins were separated by 7.5% SDS-PAGE, and transferred onto a PVDF membrane, prior to detection of the p53 protein on the membrane using anti-p53 antibodies (FL393 or DO-1). Reaction and detection were performed with variations in the amount of GST-p53 added.
# In the presence of GST-p53, varying concentrations (75 μM, 150 μM, 300 μM, or 600 μM) of compounds X and Y were added to the in vitro ubiquitination reaction system using MBP-Syno ΔTM-His. After reaction, proteins were separated by 7.5% SDS-PAGE, transferred onto a PVDF membrane, and then detected using the anti-p53 antibody FL393 (Santa Cruz Biotechnology).
# [3] = system: rheumatoid arthritis synovial cells (RASCs); test: suppression of RASC proliferation (MTT); assay type: cell-based; details: Synovial cell, after 72 h of culture, FIGS. 23 and 24, read-out: IC50, RASC cell survival
# Procedure: The low molecular weight compounds termed No. 32 (Compound X) and No. 38 (Compound Y) were used as specimens. HFLS-RA medium (Cell Applications Inc.; Code CA40405) was used for RASC. RASCs were seeded in a 96-well microtiter plate at 1,000 cells/well, and cultured for 24 h in DMEM containing 10% fetal bovine serum (Kohjin Bio). Then, twofold serial dilutions of the specimens, beginning from a final concentration of 50 μM, were added to the cells. After 1, 24, and 48 h, 3-(4,5-dimethylthiazol-2-yl)-2,5-diphenyltetrazoliumbromide (MTT) was added to a final concentration of 0.5 mg/mL. After 2 h, the medium was aspirated, and the remaining formazan was dissolved with 50 μL of dimethyl sulfoxide. Then, absorbances at […] were measured. The absorbances of the group treated with the specimens were used to calculate cell survival rates, with 0% representing the absorbance of the group without cells or specimen, and 100% representing the absorbance of the group without specimen.
# synoviolin and p53 mRNA = test: mRNA levels of synoviolin and p53 in RASCs under synoviolin RNAi (TaqMan); assay type: cell-based; details: 25 nM siRNA, cultured 4 d, 18S rRNA as control, FIG. 14
# Procedure: RASCs were seeded on a 10 cm dish at 30,000 cells/dish, and were transfected with 25 nM of siRNA (No. 589) according to a routine method. The cells were then cultured for 4 d. During this period, cells were collected overtime to obtain mRNA. Random primers were used, with 1 μg of mRNA as a template, to perform reverse transcription reactions, and cDNAs were obtained. The obtained cDNAs were quantified using the ABI TaqMan Gene expression assay (GEX). The mRNA levels were calculated using 18S rRNA as control.
# The GEX reagent target assay no. (Assay ID) is Hs00381211_m1 for synoviolin and Hs00153340_m1 for p53.
# RA synovial cells = test: cell cycle of RA synovial cells after synoviolin siRNA (flow cytometer); assay type: cell-based; details: 25 nM siRNA, FIG. 7
# Procedure: RA synovial cells were seeded on a 10 cm dish at 9.0×10^4 cells/dish, and were transfected with synoviolin siRNA (final concentration 25 nM). Then, the cell cycle was monitored by flow cytometer.
molecule,measurement,setting,value
Cn1c(=O)c2c(ncn2C)n(C)c1=O [caffeine],inhibition of the siRNA-enhanced phosphorylation of p53 Ser15,[1],completely inhibited
CN(C)c1nc(N/N=C/c2cc([N+](=O)[O-])ccc2O)nc(Nc2ccc(F)cc2)n1 [compound Y],p53 protein expression level,p53 protein,increased
same,cell proliferation / cell survival rate of RKO cells,RKO cells,cell proliferation was suppressed
same,inhibition of the GST-p53 ubiquitination reaction,[2],inhibited the GST-p53 ubiquitination reaction in a concentration-dependent manner
same,IC50,[3],~6 µM
h589: double-stranded RNA in which sense strand SEQ ID NO: 18 and antisense strand SEQ ID NO: 19 are annealed; synoviolin siRNA (sense GGUGUUCUUUGGGCAACUGTT; antisense CAGUUGCCCAAAGAACACCTT; chemistry not given here),level of p53 mRNA,synoviolin and p53 mRNA,unchanged
same,level of synoviolin mRNA,synoviolin and p53 mRNA,decreased
same,cell cycle,RA synovial cells,delay in the cell cycle at the G0/G1 phase
COc1ccc(/C=N/Nc2nc(Nc3ccc([N+](=O)[O-])cc3)nc(N3CCN(C)CC3)n2)cc1OC [compound X],cell proliferation / cell survival rate of RKO cells,RKO cells,cell proliferation was suppressed
same,inhibition of the GST-p53 ubiquitination reaction,[2],inhibited the GST-p53 ubiquitination reaction in a concentration-dependent manner
same,IC50,[3],20 µM

# Source: patent publication US20080305102A1, “Therapeutic Agent for Cancer Comprising Substance Capable of Inhibiting Expression or Function of Synoviolin as Active Ingredient and Screening Method for the Therapeutic Agent for Cancer” (priority 2005, published 2008)
